How the values were obtained:
Experiment in all cases: relative viability (nuclei count vs DMSO), 5 days (fraction); higher = more cells survive
VX-11e + Palbociclib = compound: CC1=CN=C(N=C1C2=CNC(=C2)C(=O)N[C@H](CO)C3=CC(=CC=C3)Cl)NC4=C(C=C(C=C4)F)Cl [VX-11e] + CC(=O)c1c(C)c2cnc(Nc3ccc(N4CCNCC4)cn3)nc2n(C2CCCC2)c1=O [Palbociclib] (partner 0.5 µM)
Procedure, shortened: (§1)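 Relative viability equals treated-well nuclei counts divided by vehicle-well nuclei counts. Counts came from 4× images of lung cancer cell lines grown in 1536-well plates for 5 days after pin-tool dosing on the day after seeding. Dosing used one drug alone or a fixed anchor-drug dose plus five library-drug doses (not always all listed) in √10 steps, and values are medians of duplicate plates.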

VX-11e + Foretinib = compound: CC1=CN=C(N=C1C2=CNC(=C2)C(=O)N[C@H](CO)C3=CC(=CC=C3)Cl)NC4=C(C=C(C=C4)F)Cl [VX-11e] + COc1cc2c(Oc3ccc(NC(=O)C4(C(=O)Nc5ccc(F)cc5)CC4)cc3F)ccnc2cc1OCCCN1CCOCC1 [Foretinib] (partner 0.25 µM)
Procedure, shortened: as §1

VX-11e + OSI-027 = compound: CC1=CN=C(N=C1C2=CNC(=C2)C(=O)N[C@H](CO)C3=CC(=CC=C3)Cl)NC4=C(C=C(C=C4)F)Cl [VX-11e] + COc1cccc2cc(-c3nc([C@H]4CC[C@H](C(=O)O)CC4)n4ncnc(N)c34)[nH]c12 [OSI-027] (partner 0.5 µM)
Procedure, shortened: as §1

VX-11e = compound: CC1=CN=C(N=C1C2=CNC(=C2)C(=O)N[C@H](CO)C3=CC(=CC=C3)Cl)NC4=C(C=C(C=C4)F)Cl [VX-11e]
Procedure, shortened: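 On vehicle-anchored 1536-well plates, lung cancer cell lines held overnight at 37 °C were pinned with five library-drug doses (not always all listed) spaced by √10. With no medium change over 5 days, they were then fixed, permeabilised and Hoechst-stained in one step and imaged at 4×. MetaXpress counted nuclei, and viability is the median across plates of treated-well over vehicle-well nuclei. Acceptance needed control CV below 25% and at least one doubling.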

Cell Line	relative viability (VX-11e + Palbociclib; first compound 0.04 µM)	relative viability (VX-11e + Palbociclib; first compound 0.1265 µM)	relative viability (VX-11e + Palbociclib; first compound 0.4 µM)	relative viability (VX-11e + Palbociclib; first compound 1.265 µM)	relative viability (VX-11e + Palbociclib; first compound 4 µM)	relative viability (VX-11e + Foretinib; first compound 0.04 µM)	relative viability (VX-11e + Foretinib; first compound 0.1265 µM)	relative viability (VX-11e + Foretinib; first compound 0.4 µM)	relative viability (VX-11e + Foretinib; first compound 1.265 µM)	relative viability (VX-11e + Foretinib; first compound 4 µM)	relative viability (VX-11e + OSI-027; first compound 0.04 µM)	relative viability (VX-11e + OSI-027; first compound 0.1265 µM)	relative viability (VX-11e + OSI-027; first compound 0.4 µM)	relative viability (VX-11e + OSI-027; first compound 1.265 µM)	relative viability (VX-11e + OSI-027; first compound 4 µM)	relative viability (VX-11e; 0.04 µM)	relative viability (VX-11e; 0.1265 µM)	relative viability (VX-11e; 0.4 µM)	relative viability (VX-11e; 1.265 µM)	relative viability (VX-11e; 4 µM)
NCI-H1734	0.342	0.382	0.355	0.327	0.224	0.941	0.852	0.81	0.706	0.344	0.566	0.459	0.472	0.348	0.227	0.835	0.858	0.635	0.632	0.411
NCI-H1755	0.429	0.404	0.45	0.43	0.417	0.925	0.931	0.905	0.945	0.598	0.665	0.527	0.4	0.756	0.468	1.03	0.978	0.978	0.992	0.817
NCI-H1793		0.255		0.28	0.232	0.589	0.603		0.748	0.411	0.247	0.194		0.251	0.134		0.8		0.752	0.301
NCI-H1915	0.546	0.465	0.481	0.433	0.217	1.12	1.08	1.16	1.13	0.791	0.573	0.439	0.254	0.338	0.213	0.992	0.784	0.784	0.734	0.489
